For assay [1], the system named is Human platelet aggregation caused by ADP. Briefly: Inhibition of ADP-induced platelet aggregation (Mimic-human PRP). In kind it is cell-based. The note with it: 20 μM ADP, human platelet concentrate diluted with PPP, absorption at 595 nm. The procedure, abridged: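 Human PRP diluted with PPP to 3–4×10^8 platelets/mL was preincubated 20 min at room temperature with compound (0.01–30 μM, DMSO), then stimulated with 20 μM ADP. Aggregation read as A595 increase at 3 min versus 0 and 20 μM ADP controls; Ki from sigmoidal non-linear regression.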

Another assay addresses T1, Human P2Y12 receptor (Homo sapiens, UniProt Q9H244).
T1 construct: expressed in transfected cells; host or cells: HEK cells
Briefly: Human P2Y12 receptor cell membrane binding assay with [3H] 2-Mes-ADP. The procedure, abridged: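 Membranes from HEK cells expressing human P2Y12 were incubated with compound and 1 nM [3H]2-MeS-ADP for 1 h at room temperature. Bound radioactivity was collected by GF/B filtration.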

Where [2] appears, read: 1 nM [3H] 2-Mes-ADP, membranes of HEK cells expressing P2Y12 receptor, read-out: Binding activity (IC50).

Like-named read-outs stand apart in the source and are kept apart here.

T1 sequence (Q9H244 whole entry): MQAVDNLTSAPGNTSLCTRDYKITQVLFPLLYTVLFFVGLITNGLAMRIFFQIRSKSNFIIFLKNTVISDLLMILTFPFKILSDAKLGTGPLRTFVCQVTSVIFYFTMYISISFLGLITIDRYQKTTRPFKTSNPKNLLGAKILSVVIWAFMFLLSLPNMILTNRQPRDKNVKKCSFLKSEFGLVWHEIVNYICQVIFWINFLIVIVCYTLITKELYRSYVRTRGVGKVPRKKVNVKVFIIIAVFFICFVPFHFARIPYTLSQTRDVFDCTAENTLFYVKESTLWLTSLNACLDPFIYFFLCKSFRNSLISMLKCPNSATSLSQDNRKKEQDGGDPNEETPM

In turn, `CCCc1cc2c(N3CCn4c(nnc4C(F)(F)F)C3)nc(NC3CNC3)nc2s1` [Example 1-83, Azetidin-3-yl-[6-propyl-4-(3-trifluoromethyl-5,6-dihydro-8H-[1,2,4]triazolo[4,3-a]pyrazin-7-yl)-thieno[2,3-d]pyrimidin-2-yl]-amine] registered a Ki in assay [1] of 7 nM. Also, the IC50 at Human P2Y12 receptor (setting [2]) came to 320 nM.
In the same order, the values of `CCCc1cc2c(N3CCn4c(nnc4C(F)(F)F)C3)nc(N3CC(OC(C)=O)C3)nc2s1` [Example 1-84, Acetic Acid 1-[6-propyl-4-(3-trifluoromethyl-5,6-dihydro-8H-[1,2,4]triazolo[4,3-a]pyrazin-7-yl)-thieno[2,3-d]pyrimidin-2-yl]-azetidin-3-yl ester] are 73 nM and 160 nM.
In the same order, the values of `CCCc1cc2c(N3CCn4c(nnc4C(F)(F)F)C3)nc(N3CC(O)C3)nc2s1` [Example 1-85, 1-[6-Propyl-4-(3-trifluoromethyl-5,6-dihydro-8H-[1,2,4]triazolo[4,3-a]pyrazin-7-yl)-thieno[2,3-d]pyrimidin-2-yl]-azetidin-3-ol] are 14 nM and 96 nM.
In the same order, the values of `CCCc1cc2c(N3CCn4c(nnc4C(F)(F)F)C3)nc(N3CC[C@H](C(N)=O)C3)nc2s1` [Example 1-86, (S)-1-[6-Propyl-4-(3-trifluoromethyl-5,6-dihydro-8H-[1,2,4]triazolo[4,3-a]pyrazin-7-yl)-thieno[2,3-d]pyrimidin-2-yl]-pyrrolidine-3-carboxylic acid amide] are 11 nM and 24 nM.
In the case of `CCCc1cc2c(N3CCn4c(nnc4C(F)(F)F)C3)nc(N3CC[C@H](C(=O)NC)C3)nc2s1` [Example 1-87, (S)-1-[6-Propyl-4-(3-trifluoromethyl-5,6-dihydro-8H-[1,2,4]triazolo[4,3-a]pyrazin-7-yl)-thieno[2,3-d]pyrimidin-2-yl]-pyrrolidine-3-carboxylic acid methylamide], affinity in assay [1] was put at a Ki of 11 nM. Further, the IC50 on Human P2Y12 receptor (setting [2]) was 67 nM.
In assay [1], `CCCc1cc2c(N3CCn4c(nnc4C(F)(F)F)C3)nc(N3CC[C@H](C(=O)NO)C3)nc2s1` [Example 1-89, (S)-1-[6-Propyl-4-(3-trifluoromethyl-5,6-dihydro-8H-[1,2,4]triazolo[4,3-a]pyrazin-7-yl)-thieno[2,3-d]pyrimidin-2-yl]-pyrrolidine-3-carboxylic acid hydroxyamide] showed a Ki of 12 nM. Also, the IC50 on Human P2Y12 receptor (setting [2]) amounted to 55 nM.
The corresponding values for `CCCc1cc2c(N3CCn4c(nnc4C(F)(F)F)C3)nc(N3CC[C@H](C(=O)NCCO)C3)nc2s1` [Example 1-90, (S)-1-[6-Propyl-4-(3-trifluoromethyl-5,6-dihydro-8H-[1,2,4]triazolo[4,3-a]pyrazin-7-yl)-thieno[2,3-d]pyrimidin-2-yl]-pyrrolidine-3-carboxylic acid (2-hydroxy-ethyl)-amide] are 50 nM and 110 nM.
In the same order, the values of `CCCc1cc2c(N3CCn4c(nnc4C(F)(F)F)C3)nc(N3CC[C@H](C(=O)NCCN)C3)nc2s1` [Example 1-91, (S)-1-[6-Propyl-4-(3-trifluoromethyl-5,6-dihydro-8H-[1,2,4]triazolo[4,3-a]pyrazin-7-yl)-thieno[2,3-d]pyrimidin-2-yl]-pyrrolidine-3-carboxylic acid (2-amino-ethyl)-amide] are 140 nM and 190 nM.
With `CCCc1cc2c(N3CCn4c(nnc4C(F)(F)F)C3)nc(N3CC3C(=O)OC)nc2s1` (centres unmarked) [Example 1-96, 1-[6-Propyl-4-(3-trifluoromethyl-5,6-dihydro-8H-[1,2,4]triazolo[4,3-a]pyrazin-7-yl)-thieno[2,3-d]pyrimidin-2-yl]-aziridine-2-carboxylic acid methyl ester], the affinity in assay [1] corresponds to a Ki of 21 nM. For the same compound, the IC50 at Human P2Y12 receptor was 630 nM.
The compound `CCCc1cc2c(N3CCn4c(nnc4C(F)(F)F)C3)nc(N3CCC(N(C)C)C3)nc2s1` (centres unmarked) [Example 1-97, Dimethyl-{1-[6-propyl-4-(3-trifluoromethyl-5,6-dihydro-8H-[1,2,4]triazolo[4,3-a]pyrazin-7-yl)-thieno[2,3-d]pyrimidin-2-yl]-pyrrolidin-3-yl}-amine] yielded a Ki in assay [1] of 13 nM. The concentration for half-maximal inhibition (IC50) on Human P2Y12 receptor (setting [2]) worked out at 140 nM.
`CCCc1cc2c(N3CCn4c(nnc4C(F)(F)F)C3)nc(NC3CCNC3)nc2s1` (centres unmarked) [Example 1-98, [6-Propyl-4-(3-trifluoromethyl-5,6-dihydro-8H-[1,2,4]triazolo[4,3-a]pyrazin-7-yl)-thieno[2,3-d]pyrimidin-2-yl]-pyrrolidin-3-yl-amine]: affinity in assay [1] was put at a Ki of 32 nM. Further, the IC50 on Human P2Y12 receptor (setting [2]) is 470 nM.
In the same order, the values of `CCCc1cc2c(N3CCn4c(nnc4C(F)(F)F)C3)nc(N3CC[C@H](NCCO)C3)nc2s1` [Example 1-99, 2-{(S)-1-[6-Propyl-4-(3-trifluoromethyl-5,6-dihydro-8H-[1,2,4]triazolo[4,3-a]pyrazin-7-yl)-thieno[2,3-d]pyrimidin-2-yl]-pyrrolidin-3-ylamino}-ethanol] are 43 nM and 130 nM.
With `CCCc1cc2c(N3CCn4c(nnc4C(F)(F)F)C3)nc(N3CC[C@H](NC(=O)CC#N)C3)nc2s1` [Example 1-103, 2-Cyano-N-{(S)-1-[6-propyl-4-(3-trifluoromethyl-5,6-dihydro-8H-[1,2,4]triazolo[4,3-a]pyrazin-7-yl)-thieno[2,3-d]pyrimidin-2-yl]-pyrrolidin-3-yl}-acetamide], the Ki in assay [1] stood at 6.6 nM. Also, the IC50 at Human P2Y12 receptor (setting [2]) was 50 nM.
Compound `CCCc1cc2c(N3CCn4c(nnc4C(F)(F)F)C3)nc(N3CC[C@H](NC(=O)CC(F)(F)F)C3)nc2s1` [Example 1-104, 3,3,3-Trifluoro-N-{(S)-1-[6-propyl-4-(3-trifluoromethyl-5,6-dihydro-8H-[1,2,4]triazolo[4,3-a]pyrazin-7-yl)-thieno[2,3-d]pyrimidin-2-yl]-pyrrolidin-3-yl}-propionamide] displayed a Ki in assay [1] of 86 nM. The IC50 on Human P2Y12 receptor (setting [2]) is 80 nM.
The corresponding values for `CCCc1cc2c(N3CCn4c(nnc4C(F)(F)F)C3)nc(N3CC[C@H](NC(=O)CCO)C3)nc2s1` [Example 1-109, 3-Hydroxy-N-{(S)-1-[6-propyl-4-(3-trifluoromethyl-5,6-dihydro-8H-[1,2,4]triazolo[4,3-a]pyrazin-7-yl)-thieno[2,3-d]pyrimidin-2-yl]-pyrrolidin-3-yl}-propionamide] are 26 nM and 80 nM.
In the same order, the values of `CCCc1cc2c(N3CCn4c(nnc4C(F)(F)F)C3)nc(N3CC[C@H](NC(=O)CCN)C3)nc2s1` [Example 1-110, 3-Amino-N-{(S)-1-[6-propyl-4-(3-trifluoromethyl-5,6-dihydro-8H-[1,2,4]triazolo[4,3-a]pyrazin-7-yl)-thieno[2,3-d]pyrimidin-2-yl]-pyrrolidin-3-yl}-propionamide] are 60 nM and 670 nM.
The corresponding values for `CCCc1cc2c(N3CCn4c(nnc4C(F)(F)F)C3)nc(N3CC[C@H](NC(=O)c4ccccn4)C3)nc2s1` [Example 1-111, Pyridine-2-carboxylic Acid {(S)-1-[6-propyl-4-(3-trifluoromethyl-5,6-dihydro-8H-[1,2,4]triazolo[4,3-a]pyrazin-7-yl)-thieno[2,3-d]pyrimidin-2-yl]-pyrrolidin-3-yl}-amide] are 590 nM and 150 nM.
`CCCc1cc2c(N3CCn4c(nnc4C(F)(F)F)C3)nc(N3CC[C@H](NC(=O)c4ccco4)C3)nc2s1` [Example 1-112, Furan-2-carboxylic Acid {(S)-1-[6-propyl-4-(3-trifluoromethyl-5,6-dihydro-8H-[1,2,4]triazolo[4,3-a]pyrazin-7-yl)-thieno[2,3-d]pyrimidin-2-yl]-pyrrolidin-3-yl}-amide]: the affinity in assay [1], expressed as Ki, was 260 nM. For the same compound, at Human P2Y12 receptor (setting [2]), the IC50 turned out to be 50 nM.
`CCCc1cc2c(N3CCn4c(nnc4C(F)(F)F)C3)nc(N3CC[C@H](NS(C)(=O)=O)C3)nc2s1` [Example 1-113, N-{(S)-1-[6-Propyl-4-(3-trifluoromethyl-5,6-dihydro-8H-[1,2,4]triazolo[4,3-a]pyrazin-7-yl)-thieno[2,3-d]pyrimidin-2-yl]-pyrrolidin-3-yl}-methanesulfonamide] returned a Ki in assay [1] of 36 nM. Further, the IC50 at Human P2Y12 receptor (setting [2]) is 32 nM.
In assay [1], `CCCc1cc2c(N3CCn4c(nnc4C(F)(F)F)C3)nc(N3CC(=O)C(N)C3)nc2s1` (centres unmarked) [Example 1-115, 4-Amino-1-[6-propyl-4-(3-trifluoromethyl-5,6-dihydro-8H-[1,2,4]triazolo[4,3-a]pyrazin-7-yl)-thieno[2,3-d]pyrimidin-2-yl]-pyrrolidin-3-one] displayed a Ki of 16 nM. In addition, at Human P2Y12 receptor (setting [2]), the IC50 came to 110 nM.
In assay [1], `CCCc1cc2c(N3CCn4c(nnc4C(F)(F)F)C3)nc(N3CC(=NO)C(N)C3)nc2s1` (centres unmarked) [Example 1-116, 4-Amino-1-[6-propyl-4-(3-trifluoromethyl-5,6-dihydro-8H-[1,2,4]triazolo[4,3-a]pyrazin-7-yl)-thieno[2,3-d]pyrimidin-2-yl]-pyrrolidin-3-one oxime] displayed a Ki of 28 nM. In addition, the IC50 at Human P2Y12 receptor (setting [2]) stood at 70 nM.
The corresponding values for `CCCc1cc2c(N3CCn4c(nnc4C(F)(F)F)C3)nc(N3CC(=NOC)C(N)C3)nc2s1` (centres unmarked) [Example 1-117, 4-Amino-1-[6-propyl-4-(3-trifluoromethyl-5,6-dihydro-8H-[1,2,4]triazolo[4,3-a]pyrazin-7-yl)-thieno[2,3-d]pyrimidin-2-yl]-pyrrolidin-3-one O-methyl-oxime] are 42 nM and 220 nM.

(Values after patent US20110166121A1 (LG LIFE SCIENCES LTD., priority 2008, published 2011).)
